The target of data set [1] is T1, human Y2 receptor (Homo sapiens, UniProt P49146).
T1 sequence (P49146 1-381): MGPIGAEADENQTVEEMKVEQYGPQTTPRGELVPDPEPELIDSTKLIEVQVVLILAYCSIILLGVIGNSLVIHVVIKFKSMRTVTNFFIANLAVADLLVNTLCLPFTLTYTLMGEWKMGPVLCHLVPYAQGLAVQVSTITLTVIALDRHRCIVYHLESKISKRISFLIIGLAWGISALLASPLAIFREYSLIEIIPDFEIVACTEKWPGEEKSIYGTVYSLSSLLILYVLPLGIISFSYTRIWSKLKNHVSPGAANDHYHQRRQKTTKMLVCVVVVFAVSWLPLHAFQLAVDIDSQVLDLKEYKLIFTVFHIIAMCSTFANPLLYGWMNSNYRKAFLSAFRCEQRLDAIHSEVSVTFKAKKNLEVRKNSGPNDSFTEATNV
The experiment in a line: NPY receptor functional assay (cAMP, HEK-CNG cells, ACTOne membrane potential dye). Type of data set: cell-based. To be noted: NPY2R pEC50, HEK-CNG cells; standard PYY(3-36); species (human or rat) not given. In a few lines: (§1)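 HEK-CNG cells stably expressing each human receptor; peptides added in triplicate for 50 minutes at room temperature, with agonism read as decreased isoproterenol-induced membrane potential dye signal (final/initial read).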

Data set [2] addresses T2, human Y5 receptor (Homo sapiens, UniProt Q15761).
T2 sequence (Q15761 1-445): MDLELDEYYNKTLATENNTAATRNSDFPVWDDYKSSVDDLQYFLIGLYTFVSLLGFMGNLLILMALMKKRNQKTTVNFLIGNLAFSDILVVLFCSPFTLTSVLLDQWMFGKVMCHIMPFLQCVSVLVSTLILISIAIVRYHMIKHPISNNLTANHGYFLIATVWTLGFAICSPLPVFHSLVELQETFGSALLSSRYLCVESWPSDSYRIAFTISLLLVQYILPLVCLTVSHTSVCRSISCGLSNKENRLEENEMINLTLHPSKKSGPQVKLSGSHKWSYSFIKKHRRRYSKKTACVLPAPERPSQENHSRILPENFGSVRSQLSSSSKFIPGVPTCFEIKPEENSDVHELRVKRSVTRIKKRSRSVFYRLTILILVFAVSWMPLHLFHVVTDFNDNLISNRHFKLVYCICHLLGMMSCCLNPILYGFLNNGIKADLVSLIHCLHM
Described as above. Type of data set: cell-based. The following applies: NPY5R pEC50, HEK-CNG cells; standard NPY; species (human or rat) not given. The gist of the method:
as §1

The nature of data set [3]: In vitro metabolic stability in kidney brush border membranes (kBBM). Type of data set: in vitro ADME. The following applies: 1 mcM peptide, 37° C. The procedure:
In vitro incubations in kidney brush border membrane (kBBM) preparations were used to characterize the ability of peptides to resist degradation by proteases and peptidases in the systemic circulation. kBBM were selected because they contain a high concentration of a diverse set of proteases and peptidases, many of which are present throughout the body.
Brush border membranes from rat and human kidney tissue were prepared via centrifugation and stored at −70° C. Thawed stocks of rat or human kBBM were diluted to the appropriate concentration in 25 mM HEPES buffer (pH 7.4) containing 1% casein and aliquoted into a 96-well plate. The kBBM solutions were pre-warmed for 10 minutes at 37° C. […] The final concentration of kBBM in each incubation was 50 mcg protein/mL. Reactions were maintained at 37° C. in a shaking water bath. […] Quenched samples were centrifuged at 2178×g for 10 min and then a portion of the supernatants were transferred to a clean 96-well plate and diluted 1:1 with water. Samples were analyzed by UPLC-MS/MS.

Data set [4] in a line: In vitro stability in subcutaneous (SC) tissue homogenates. The following applies: subcutaneous tissue homogenate, pH 7.4; human SC tissue homogenate 1.0 mg protein/mL, 10 mcM peptide, 37° C.; read-out: (H)SC tissue stability t½ (converted). The data set is classed as in vitro ADME. On the procedure: In vitro incubations in subcutaneous (SC) tissue homogenates were used to characterize the ability of peptides to resist pre-systemic degradation by proteases and peptidases after SC administration. […] Peptides with high SC bioavailability are stable in this assay, while peptides with low SC bioavailability are unstable in this assay.
Human SC tissue was homogenized in cold 25 mM HEPES buffer (pH 7.4, 10-fold volume based on sample weight), and then filtered through a double layer of cheesecloth. The filtrates were aliquoted, flash frozen on a methanol/dry ice bath and stored at −80° C. The protein concentration of each pooled batch was determined using the BCA protein assay. Thawed stocks of human SC tissue homogenates were diluted to 1.0 mg protein/mL in 25 mM HEPES buffer (pH 7.4) and aliquoted into a 96-well plate. The diluted SC homogenates were pre-warmed for 10 minutes at 37° C. […] Reactions were maintained at 37° C. in a shaking water bath. […] Quenched samples were centrifuged at 2178×g for 10 min and then a portion of the supernatants were transferred to a clean 96-well plate and diluted 1:10 with water. Samples were analyzed by UPLC-MS/MS.

[5] abbreviates: pH 7.4, human kBBM 50 mcg protein/mL, read-out: hkBBM t½ (converted).

pEC50: −log10 of the molar value. Read-outs that look alike come from different tables or passages of the source. Starred links: 1 amine or outer side, 2 acyl side, 3 side chain; linkers in the order of their positions; H or OH if unused. Residues, ends and D or L forms follow the SMILES beside them. Groups on a side chain read outwards from the residue. *: point of attachment. C20 diacid = O=C(O)CCCCCCCCCCCCCCCCCCC(=O)*; γGlu = O=C(O)[C@H](CCC(=O)[*:2])N[*:1]

Experimental findings from patent US12122816B2, “Long acting peptide tyrosine tyrosine (PYY) analogs and methods of use” (Intarcia Therapeutics, Inc., priority 2020, dated 2024) are described below.

Turning to `CC(C)C[C@H](NC(=O)[C@H](CC(=O)O)NC(=O)[C@H](CCCCNC(=O)CC[C@H](NC(=O)CC[C@H](NC(=O)CCCCCCCCCCCCCCCCCCC(=O)O)C(=O)O)C(=O)O)NC(=O)[C@H](Cc1ccc(O)cc1)NC(=O)[C@H](Cc1ccc(O)cc1)NC(=O)[C@H](CCCNC(=N)N)NC(=O)[C@H](CC(N)=O)NC(=O)[C@H](Cc1c[nH]c2ccccc12)NC(=O)[C@H](CCC(=O)O)NC(=O)[C@H](CCCCN)NC(=O)[C@@H]1CCCN1C(=O)[C@H](CO)NC(=O)[C@H](C)NC(=O)[C@H](CC(=O)O)NC(=O)[C@H](CCC(=O)O)NC(=O)CNC(=O)[C@@H]1CCCN1C(=O)[C@H](CCCCN)NC(=O)[C@H](CCC(=O)O)NC(=O)[C@@H]1CCCN1C(=O)[C@H](CCCCN)NC(=O)[C@@H]1CCCN1)C(=O)N[C@@H](CCCNC(=N)N)C(=O)N[C@@H](Cc1c[nH]cn1)C(=O)N[C@@H](Cc1ccc(O)cc1)C(=O)N[C@@H](CC(C)C)C(=O)N[C@@H](CC(N)=O)C(=O)N[C@@H](Cc1c[nH]c2ccccc12)C(=O)N[C@@H](CC(C)C)C(=O)N[C@H](C(=O)N[C@@H](CCCNC(=N)N)C(=O)N[C@@H](CCC(N)=O)C(=O)N[C@@H](CCCNC(=N)N)C(=O)N[C@@H](Cc1ccccc1)C(N)=O)[C@@H](C)O` [Compound A29], the pEC50 – broadly, the EC50 on a negative log10 scale, so that one unit is a factor of ten – is 10.90 in data set [1] and 9.00 in data set [2]. In addition, in data set [3] (setting [5]), the half-life at 1 mcM was 8.7 h. The half-life at 10 mcM in data set [4] is 1.1 h.
For `CC(C)C[C@H](NC(=O)[C@H](CC(=O)O)NC(=O)[C@H](CCCCNC(=O)CC[C@H](NC(=O)CC[C@H](NC(=O)CCCCCCCCCCCCCCCCCCC(=O)O)C(=O)O)C(=O)O)NC(=O)[C@H](Cc1ccc(O)cc1)NC(=O)[C@H](Cc1ccc(O)cc1)NC(=O)[C@H](CCCNC(=N)N)NC(=O)[C@H](CC(=O)O)NC(=O)[C@H](Cc1c[nH]c2ccccc12)NC(=O)[C@H](CCC(=O)O)NC(=O)[C@H](CCCCN)NC(=O)[C@@H]1CCCN1C(=O)[C@H](CO)NC(=O)[C@H](C)NC(=O)[C@H](CC(=O)O)NC(=O)[C@H](CCC(=O)O)NC(=O)CNC(=O)[C@@H]1CCCN1C(=O)[C@H](CCCCN)NC(=O)[C@H](CCC(=O)O)NC(=O)[C@@H]1CCCN1C(=O)[C@H](CCCCN)NC(=O)[C@@H]1CCCN1)C(=O)N[C@@H](CCCNC(=N)N)C(=O)N[C@@H](Cc1c[nH]cn1)C(=O)N[C@@H](Cc1ccc(O)cc1)C(=O)N[C@@H](CC(C)C)C(=O)N[C@@H](CC(N)=O)C(=O)N[C@@H](Cc1c[nH]c2ccccc12)C(=O)N[C@@H](CC(C)C)C(=O)N[C@H](C(=O)N[C@@H](CCCNC(=N)N)C(=O)N[C@@H](CCC(N)=O)C(=O)N[C@@H](CCCNC(=N)N)C(=O)N[C@@H](Cc1ccccc1)C(N)=O)[C@@H](C)O` [Compound A34], in that order: 10.20, 8.80, 6.7 h and 4.9 h.
For `CC(C)C[C@H](NC(=O)[C@H](CC(=O)O)NC(=O)[C@H](CCCCNC(=O)CC[C@H](NC(=O)CC[C@H](NC(=O)CCCCCCCCCCCCCCCCCCC(=O)O)C(=O)O)C(=O)O)NC(=O)[C@H](Cc1ccc(O)cc1)NC(=O)[C@H](Cc1ccc(O)cc1)NC(=O)[C@H](CCCNC(=N)N)NC(=O)[C@H](CC(N)=O)NC(=O)[C@H](Cc1c[nH]c2ccccc12)NC(=O)[C@H](CCC(=O)O)NC(=O)[C@H](CCCCN)NC(=O)[C@@H]1CCCN1C(=O)[C@H](CO)NC(=O)[C@H](C)NC(=O)[C@H](CC(=O)O)NC(=O)[C@H](CCCCN)NC(=O)CNC(=O)[C@@H]1CCCN1C(=O)[C@H](CCCCN)NC(=O)[C@H](CCC(=O)O)NC(=O)[C@@H]1CCCN1C(=O)[C@H](CCCCN)NC(=O)[C@@H]1CCCN1)C(=O)N[C@@H](CCCNC(=N)N)C(=O)N[C@@H](Cc1c[nH]cn1)C(=O)N[C@@H](Cc1ccc(O)cc1)C(=O)N[C@@H](CC(C)C)C(=O)N[C@@H](CC(N)=O)C(=O)N[C@@H](Cc1c[nH]c2ccccc12)C(=O)N[C@@H](CC(C)C)C(=O)N[C@H](C(=O)N[C@@H](CCCNC(=N)N)C(=O)N[C@@H](CCC(N)=O)C(=O)N[C@@H](CCCNC(=N)N)C(=O)N[C@@H](Cc1ccccc1)C(N)=O)[C@@H](C)O` [Compound A28] (H-PKPEKPGKDASPKEWNRYYK([γGlu-γGlu-C20 diacid])DLRHYLNWLTRQRF-NH2; N-terminus assumed), in that order: 10.50, 8.80, 5.2 h and 0.2 h.
As to `CC(C)C[C@H](NC(=O)[C@H](CC(=O)O)NC(=O)[C@H](CCCCNC(=O)CC[C@H](NC(=O)COCCOCCNC(=O)COCCOCCNC(=O)CC[C@H](NC(=O)CCCCCCCCCCCCCCCCCCC(=O)O)C(=O)O)C(=O)O)NC(=O)[C@H](Cc1ccc(O)cc1)NC(=O)[C@H](Cc1ccc(O)cc1)NC(=O)[C@H](CCCNC(=N)N)NC(=O)[C@H](CC(N)=O)NC(=O)[C@H](Cc1c[nH]c2ccccc12)NC(=O)[C@H](CCC(=O)O)NC(=O)[C@H](CCC(=O)O)NC(=O)[C@@H]1CCCN1C(=O)[C@H](CO)NC(=O)[C@H](C)NC(=O)[C@H](CC(=O)O)NC(=O)[C@H](CCCCN)NC(=O)CNC(=O)[C@@H]1CCCN1C(=O)[C@H](C)NC(=O)[C@H](CCC(=O)O)NC(=O)[C@@H]1CCCN1C(=O)[C@H](CCCCN)NC(=O)[C@@H]1CCCN1)C(=O)N[C@@H](CCCNC(=N)N)C(=O)N[C@@H](Cc1c[nH]cn1)C(=O)N[C@@H](Cc1ccc(O)cc1)C(=O)N[C@@H](CC(C)C)C(=O)N[C@@H](CC(N)=O)C(=O)N[C@@H](Cc1c[nH]c2ccccc12)C(=O)N[C@@H](CC(C)C)C(=O)N[C@H](C(=O)N[C@@H](CCCNC(=N)N)C(=O)N[C@@H](CCC(N)=O)C(=O)N[C@@H](CCCNC(=N)N)C(=O)N[C@@H](Cc1ccccc1)C(N)=O)[C@@H](C)O` [Compound A16], the pEC50 in data set [1] was 10.20; in data set [2], 9.10. Also, the half-life at 1 mcM was over 12 h in data set [3] (setting [5]) and over 12 h in data set [3] (pH 7.4, rat kBBM 50 mcg protein/mL, read-out: rkBBM t½). In data set [4], the half-life at 10 mcM is 7.3 h.
